# Tested on: SKOV3 human ovarian cancer cells
# Test: Effects of ADH358 on confluent cultures of SKOV3 cells (disruption of cell adhesion, microscopic examination)
# Type: cell-based
# Details: 1 mg/ml of culture medium, 24 hours of treatment
# Description: We investigated the effects of the linear peptide ADH358 (H-RWAPIP-NH2 (SEQ ID NO: 2); Desmocollin derived peptide) on confluent cultures of SKOV3 cells. SKOV3 human ovarian cancer cells express desmosomes (which are composed of desmocollins and desmogleins). SKOV3 human ovarian cancer cells were obtained from Dr. Riaz Farookhi, McGill University, Montreal, Canada. The cells were cultured in minimum essential medium (MEM) supplemented with 10% fetal calf serum, non-essential amino acids, fungizone, penicillin-streptomycin, and gentamicin in a humidified atmosphere (5% CO2) at 37° C. All culture reagents were purchased from GIBCO (Burlington, ON). ADH358 (1 mg/ml of culture medium) was added to confluent cultures of SKOV3 cells. After 24 hours of treatment, the cells were fixed with 4% paraformaldehyde, followed by 3 washes with phosphate buffered saline, and then stained with hematoxylin. Control cultures were grown in the absence of peptide.
substance,measurement,setting,value
H-RWAPIP-NH2 [ADH358],cell morphology / cell-cell attachment of SKOV3 cells,,"detach from one another and adopt an elongated, fibroblast-like morphology"
same,effect on confluent SKOV3 monolayers (cell adhesion),"hematoxylin stain, vs control cultures without peptide",disruption of the confluent SKOV3 monolayers

# Reference: patent US7476509B2, “Compounds and methods for modulating functions of nonclassical cadherins” (Adherex Technologies Inc., priority 2002, dated 2009)
